Assay results reported in US20260176289A1, “SMALL MOLECULE INHIBITORS OF KRAS PROTEINS” (Merck Sharp & Dohme LLC, priority 2022, published 2026).
Where two headings read alike, the source gives them in different places.

Tests used:
KRAS-WT = KRAS-WT (Homo sapiens, UniProt P01116); test: SOS-catalyzed nucleotide exchange assay (Procedure A, TR-FRET), KRAS-WT; format: biochemical; details: nucleotide exchange, read-out: KRAS WT GNE IC50
Outline: (§1)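 Compounds (10-point, 3-fold) were preincubated 60 min at room temperature with a biotinylated RAS/Bodipy-GDP/Tb-streptavidin TR-FRET complex. Exchange was started with human SOS plus 3 mM GTP. RAS/SOS: G12C 3/40 nM, WT 1/40 nM, NRAS 1.25/40 nM (60 min); G12V 1.25/160 nM (90 min). The 520/495 ratio was fit four-parameter.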

[1] = biological target: KRAS-G12C (C51S/C80L/C118S) (Homo sapiens, UniProt P01116, C118S/C51S/C80L/G12C); test: SOS-catalyzed nucleotide exchange assay (Procedure A, TR-FRET), KRAS-G12C; format: biochemical; details: nucleotide exchange, Procedure A; read-out: KRAS G12C GNE IC50
KRAS-G12C (C51S/C80L/C118S), sequence (P01116 with tags, fused parts or gaps isoform P01116-2 G12C/C51S/C80L/C118S): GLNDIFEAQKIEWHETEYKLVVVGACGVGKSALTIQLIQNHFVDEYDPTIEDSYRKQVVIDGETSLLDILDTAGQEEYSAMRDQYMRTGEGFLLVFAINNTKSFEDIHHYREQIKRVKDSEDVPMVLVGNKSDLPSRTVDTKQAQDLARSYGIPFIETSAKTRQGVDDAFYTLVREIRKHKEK
Outline: as §1

KRAS-G12D = KRAS-G12D (Homo sapiens, UniProt P01116, G12D); test: SOS-catalyzed nucleotide exchange assay (Procedure A, TR-FRET), KRAS-G12D; format: biochemical; details: nucleotide exchange, read-out: KRAS G12D GNE IC50
KRAS-G12D, sequence (P01116 with tags, fused parts or gaps isoform P01116-2 G12D): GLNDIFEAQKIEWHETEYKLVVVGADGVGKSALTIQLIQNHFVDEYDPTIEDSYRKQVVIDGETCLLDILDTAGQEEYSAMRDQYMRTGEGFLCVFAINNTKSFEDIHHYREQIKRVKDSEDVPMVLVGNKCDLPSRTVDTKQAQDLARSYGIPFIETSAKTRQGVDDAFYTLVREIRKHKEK
Outline: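 Signal ratio (520/495 nm, excitation 340 nm) reports Bodipy-GDP retention on biotinylated RAS after SOS-catalyzed exchange with 3 mM GTP. SOS was 40 nM, except 160 nM for G12V. Room-temperature exchange lasted 60 min (90 min for G12V), following a 60 min compound preincubation.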

KRAS-G12V = KRAS-G12V (Homo sapiens, UniProt P01116, G12V); test: SOS-catalyzed nucleotide exchange assay (Procedure A, TR-FRET), KRAS-G12V; format: biochemical; details: nucleotide exchange, read-out: KRAS G12V GNE IC50
KRAS-G12V, sequence (P01116 with tags, fused parts or gaps isoform P01116-2 G12V): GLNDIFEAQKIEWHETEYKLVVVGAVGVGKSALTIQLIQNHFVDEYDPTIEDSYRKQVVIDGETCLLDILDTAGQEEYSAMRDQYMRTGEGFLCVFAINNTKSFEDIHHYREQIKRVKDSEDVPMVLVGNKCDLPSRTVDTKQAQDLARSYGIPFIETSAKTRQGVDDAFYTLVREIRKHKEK
Outline: as §1

KRAS-G13D = KRAS-G13D (Homo sapiens, UniProt P01116, G13D); test: SOS-catalyzed nucleotide exchange assay (Procedure A, TR-FRET), KRAS-G13D; format: biochemical; details: nucleotide exchange, Procedure A; read-out: KRAS G13D GNE IC50
KRAS-G13D, sequence (P01116 with tags, fused parts or gaps isoform P01116-2 G13D): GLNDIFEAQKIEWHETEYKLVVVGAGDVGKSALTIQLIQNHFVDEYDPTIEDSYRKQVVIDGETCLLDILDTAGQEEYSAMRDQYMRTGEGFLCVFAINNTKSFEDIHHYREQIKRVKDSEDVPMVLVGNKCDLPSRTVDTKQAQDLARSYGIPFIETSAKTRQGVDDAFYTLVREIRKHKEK

HRAS = HRAS (Homo sapiens, UniProt P01112); test: SOS-catalyzed nucleotide exchange assay (Procedure A, TR-FRET), HRAS; format: biochemical; details: read-out: HRAS GNE IC50
HRAS, sequence (P01112 with tags, fused parts or gaps): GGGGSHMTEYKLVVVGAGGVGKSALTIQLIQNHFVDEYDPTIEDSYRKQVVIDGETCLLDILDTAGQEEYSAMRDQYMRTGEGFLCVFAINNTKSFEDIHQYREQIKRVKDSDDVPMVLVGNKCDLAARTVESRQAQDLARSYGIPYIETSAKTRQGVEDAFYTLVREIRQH
Excerpt: Procedure for SOS-Catalyzed Nucleotide Exchange Assay for KRAS-WT, G12C/D/V, G13D, HRAS, and NRAS (Procedure A)
Recombinant KRAS-G12C protein used in this assay has an additional triple mutation (C51S/C80L/C118S). Whereas KRAS-WT, G12D/V, G13D, HRAS and NRAS are in context of their WT protein sequence background. Specifically, the SOS-catalyzed nucleotide exchange assay utilizes a preformed TR-FRET complex containing a specific biotinylated RAS protein (KRAS-WT, G12C/V/D, G13D, HRAS, NRAS; described above) with Bodipy-GDP, and Terbium-streptavidin. Compounds are preincubated with this complex for 60 minutes. Subsequently, recombinant human SOS protein and unlabeled GTP are added to initiate the exchange reaction. Small molecule inhibitors stabilize the Bodipy-GDP complex whereas the untreated protein rapidly exchanges Bodipy-GDP for unlabeled GTP resulting in reduced TR-FRET signal.
To assemble the preformed TR-FRET complexes, each biotinylated RAS protein is diluted to 2 μM in an EDTA Buffer (20 mM HEPES pH 7.5, 50 mM sodium chloride, 10 mM EDTA, and 0.01% Tween) and incubated at room temperature for one hour. This mixture is then further diluted to 90 nM in an Assay Buffer (20 mM HEPES pH 7.5, 150 mM sodium chloride, 10 mM magnesium chloride, and 0.005% Tween) containing 15 nM of Terbium-Streptavidin (Invitrogen, catalog #PV3577) and 900 nM of Bodipy-GDP (Invitrogen, catalog #G22360) and incubated at room temperature for six hours. It should be noted that this preformed TR-FRET complex for each of the RAS protein were made ahead of time, aliquoted and stored at −80° C. until the day of the experiment.
Each test compound (10 mM stock in DMSO) is diluted in DMSO to make a final-10-point, 3-fold dilution and is acoustically dispensed into a 384-well assay plate (Corning, catalog #3820) using an Echo 550 (Labcyte). Each well of the assay plate receives 3 μL of a specific 3×RAS preformed TR-FRET complex and 3 μL of Assay Buffer and is incubated at room temperature for 60 minutes (preincubation time). Each well then receives 3 μL of 3×recombinant human SOS protein and GTP (Sigma, G8877) in Assay Buffer and is incubated at room temperature for 30 minutes (G13D), 60 minutes (KRAS WT/G12C/D, H/NRAS) or 90 minutes for G12V. The final reaction in each well of 9 μL consists of 3 mM GTP, specific Ras and SOS proteins in the following concentrations: KRAS-G12C/SOS=3 nM/40 nM, KRAS-WT and G12D/SOS=1 nM/40 nM, KRAS-G12V/SOS=1.25 nM/160 nM. KRAS-G13D/SOS=1.25 nM/0 nM, HRAS and NRAS=1.25 nM/40 nM.
The time-resolved fluorescence resonance energy transfer (TR-FRET) signal is measured on an Envision (PerkinElmer) plate reader: Excitation filter=340 nm; emission 1=495 nm; emission2=520 nm; dichroic mirror=D400/D505; delay time=[…]. The signal of each well is determined as the ratio of the emission at 520 nm to that at 495 nm. Percent effect of each well is determined after normalization to control wells containing DMSO (no effect) or a saturating concentration of inhibitor (max effect). The apparent effect as a function of compound concentration is fit to a four-parameter logistic equation.

MKN-1 cells = test: Cellular phospho-ERK assay, MKN-1 cells (amplified wild-type KRAS); format: cell-based; details: Homo sapiens, read-out: MKN1 pERK IC50
Outline: (§2)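 Cells were seeded overnight, then treated 2 h at 37° C with compound in a 10-point, 1:3 titration from 30 μM top final concentration. Lysates were assayed by AlphaLISA SureFire Ultra for p-ERK and total ERK. IC50 came from a 4-parameter logistic fit of the p-ERK/total ERK ratio.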

AsPC-1 cells = test: Cellular phospho-ERK assay, AsPC-1 cells (homozygous KRAS-G12D); format: cell-based; details: Homo sapiens, ASPC1, 2 h, read-out: AsPC1 pERK IC50
Outline: as §2

SW620 cells = test: Cellular phospho-ERK assay, SW620 cells (homozygous KRAS-G12V); format: cell-based; details: Homo sapiens, read-out: SW620 pERK IC50
Outline: as §2

[2] = SW-620, 2 hours compound incubation

KRAS-WT, sequence (P01116 with tags, fused parts or gaps isoform P01116-2): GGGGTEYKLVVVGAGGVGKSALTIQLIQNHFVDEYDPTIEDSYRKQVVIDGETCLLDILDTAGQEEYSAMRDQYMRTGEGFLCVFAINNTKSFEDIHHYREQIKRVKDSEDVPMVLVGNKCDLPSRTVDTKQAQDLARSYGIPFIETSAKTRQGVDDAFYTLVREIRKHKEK

For `C[C@@]1(O)COCCN(c2nc(OC[C@]3(CN4CC5(CCCOC5)C4)CC3(F)F)nc3sc4c(-c5c(C6(F)CC6)c(Cl)cc6[nH]ncc56)nccc4c23)C1` [Ex-249, (6S)-4-(2-(((R)-1-((6-oxa-2-azaspiro[3.5]nonan-2-yl)methyl)-2,2-difluorocyclopropyl)methoxy)-8-(6-chloro-5-(1-fluorocyclopropyl)-1H-indazol-4-yl)pyrido[4′,3′:4,5]thieno[2,3-d]pyrimidin-4-yl)-6-methyl-1,4-oxazepan-6-ol], the IC50 (KRAS-WT) was 0.0202 µM, the IC50 [1] was 0.0114 µM and the IC50 (KRAS-G12D) was 0.00269 µM. The IC50 (KRAS-G12V) was 0.0155 µM, the IC50 (KRAS-G13D) was 0.0213 µM and the IC50 (HRAS) was 0.943 µM. It also gave an IC50 (MKN-1 cells; 2 hours compound incubation) of 0.0365 µM, an IC50 (AsPC-1 cells; 2 hours compound incubation) of 0.0738 µM and an IC50 (SW620 cells; [2]) of 0.0512 µM.
`C[C@H]1CCN1C[C@@]1(COc2nc(N3CCOC[C@@](C)(O)C3)c3c(n2)sc2c(-c4c(C5(F)CC5)c(Cl)cc5[nH]ncc45)nccc23)CC1(F)F` [Ex-253, (6S)-4-(8-(6-chloro-5-(1-fluorocyclopropyl)-1H-indazol-4-yl)-2-(((R)-2,2-difluoro-1-(((S)-2-methylazetidin-1-yl)methyl)cyclopropyl)metho-xy)pyrido[4′,3′:4,5]thieno[2,3-d]pyrimidin-4-yl)-6-methyl-1,4-oxazepan-6-ol] gave an IC50 (KRAS-WT) of 0.0201 µM, an IC50 [1] of 0.0152 µM and an IC50 (KRAS-G12D) of 0.0041 µM. It also gave an IC50 (KRAS-G12V) of 0.0159 µM, an IC50 (KRAS-G13D) of 0.0184 µM and an IC50 (HRAS) of 1.06 µM. For the same compound, the IC50 (MKN-1 cells; 2 hours compound incubation) was 0.0497 µM, the IC50 (AsPC-1 cells; 2 hours compound incubation) was 0.0576 µM and the IC50 (SW620 cells; [2]) was 0.0496 µM.
`C[C@@]1(O)COCCN(c2nc(OC[C@]3(CN4C[C@H]5CCCO[C@H]5C4)CC3(F)F)nc3sc4c(-c5c(C6(F)CC6)c(Cl)cc6[nH]ncc56)nccc4c23)C1` [Ex-255, (6S)-4-(8-(6-chloro-5-(1-fluorocyclopropyl)-1H-indazol-4-yl)-2-(((R)-2,2-difluoro-1-(((4aR,7aR)-hexahydropyrano[2,3-c]pyrrol-6(2H)-yl)methyl)cyclopropyl)metho-xy)pyrido[4′,3′:4,5]thieno[2,3-d]pyrimidin-4-yl)-6-methyl-1,4-oxazepan-6-o1] was tested, and the IC50 (KRAS-WT) was 0.0185 µM, the IC50 [1] was 0.0867 µM and the IC50 (KRAS-G12D) was 0.00479 µM. For the same compound, the IC50 (KRAS-G12V) was 0.0149 µM, the IC50 (KRAS-G13D) was 0.0128 µM and the IC50 (HRAS) was 1.39 µM. The IC50 (MKN-1 cells; 2 hours compound incubation) was 0.0253 µM, the IC50 (AsPC-1 cells; 2 hours compound incubation) was 0.0933 µM and the IC50 (SW620 cells; [2]) was 0.0401 µM.
With `C[C@@]1(O)COCCN(c2nc(OC[C@]3(CN4CC(CF)C4)CC3(F)F)nc3sc4c(-c5c(C6(F)CC6)c(Cl)cc6[nH]ncc56)nccc4c23)C1` [Ex-266, (6S)-4-(8-(6-chloro-5-(1-fluorocyclopropyl)-1H-indazol-4-yl)-2-(((R)-2,2-difluoro-1-((3-(fluoromethyl)azetidin-1-yl)methyl)cyclopropyl)metho-xy)pyrido[4′,3′:4,5]thieno[2,3-d]pyrimidin-4-yl)-6-methyl-1,4-oxazepan-6-ol] the IC50 (KRAS-WT) was 0.0234 µM, the IC50 [1] was 0.0688 µM and the IC50 (KRAS-G12D) was 0.00375 µM. It also gave an IC50 (KRAS-G12V) of 0.0216 µM, an IC50 (KRAS-G13D) of 0.0282 µM and an IC50 (HRAS) of 1.29 µM. For the same compound, the IC50 (MKN-1 cells; 2 hours compound incubation) was 0.0473 µM, the IC50 (AsPC-1 cells; 2 hours compound incubation) was 0.0897 µM and the IC50 (SW620 cells; [2]) was 0.0393 µM.
`C[C@@]1(O)COCCN(c2nc(OC[C@@]34CCCN3C/C(=C\F)C4)nc3sc4c(-c5c(C6(F)CC6)c(Cl)cc6[nH]ncc56)nccc4c23)C1` [Ex-267, (6S)-4-(8-(6-chloro-5-(1-fluorocyclopropyl)-1H-indazol-4-yl)-2-(((S,Z)-2-(fluoromethylene)tetrahydro-1H-pyrrolizin-7a(5H)-yl)methoxy)pyrido[4′,3′:4,5]thieno[2,3-d]pyrimidin-4-yl)-6-methyl-1,4-oxazepan-6-ol] gave an IC50 (KRAS-WT) of 0.00556 µM, an IC50 [1] of 0.0235 µM and an IC50 (KRAS-G12D) of 0.00326 µM. For the same compound, the IC50 (KRAS-G12V) was 0.00811 µM, the IC50 (KRAS-G13D) was 0.00994 µM and the IC50 (HRAS) was 4.25 µM. The IC50 (MKN-1 cells; 2 hours compound incubation) was 0.0187 µM, the IC50 (AsPC-1 cells; 2 hours compound incubation) was 0.0236 µM and the IC50 (SW620 cells; [2]) was 0.024 µM.
Work on `CN1CCC[C@@]2(COc3nc(N4CCOC[C@@](C)(O)C4)c4c(n3)sc3c(-c5c(C6(F)CC6)c(Cl)cc6[nH]ncc56)nccc34)CCC[C@@H]12` [Ex-268, (6S)-4-(8-(6-chloro-5-(1-fluorocyclopropyl)-1H-indazol-4-yl)-2-(((4aS,7aR)-1-methyloctahydro-4aH-cyclopenta[b]pyridin-4a-yl)methoxy)pyri-do[4′,3′:4,5]thi-eno[2,3-d]pyrimidin-4-yl)-6-methyl-1,4-oxazepan-6-ol] yielded an IC50 (KRAS-WT) of 0.00572 µM, an IC50 [1] of 0.0875 µM and an IC50 (KRAS-G12D) of 0.00247 µM. For the same compound, the IC50 (KRAS-G12V) was 0.00579 µM, the IC50 (KRAS-G13D) was 0.0103 µM and the IC50 (HRAS) was 4.19 µM. The IC50 (MKN-1 cells; 2 hours compound incubation) was 0.0307 µM, the IC50 (AsPC-1 cells; 2 hours compound incubation) was 0.056 µM and the IC50 (SW620 cells; [2]) was 0.0276 µM.
Work on `C[C@@]1(O)COCCN(c2nc(OC[C@@]34CCCN3C[C@H](F)C4)nc3sc4c(-c5c(C6CC6)c(Cl)cc6[nH]ncc56)nncc4c23)C1` [Ex-280, (6S)-4-(8-(6-chloro-5-cyclopropyl-1H-indazol-4-yl)-2-(((2R,7aS)-2-fluorotetrahydro-1H-pyrrolizin-7a(5H)-yl)methoxy)pyrimi-do[5′,4′:4,5]thieno[2,3-d]pyridazin-4-yl)-6-methyl-1,4-oxazepan-6-ol] yielded an IC50 (KRAS-WT) of 0.00947 µM, an IC50 [1] of 0.0611 µM and an IC50 (KRAS-G12D) of 0.00455 µM. It also gave an IC50 (KRAS-G12V) of 0.0124 µM, an IC50 (KRAS-G13D) of 0.00489 µM and an IC50 (HRAS) of 8.66 µM. The IC50 (MKN-1 cells; amplified wild-type KRAS, 2 hours) was 0.062 µM, the IC50 (AsPC-1 cells; KRAS-G12D, 2 hours) was 0.0782 µM and the IC50 (SW620 cells; SW-620, KRAS-G12V, 2 hours) was 0.106 µM.
